The term pEC50 denotes the EC50 on a negative log10 scale, so that one unit is a factor of ten. Lower therefore signals a large EC50. Broadly, the EC50 is the midpoint of the concentration-response curve. A higher EC50 goes with lower potency in that assay.

pEC50: −log10 of the molar value. Some results are limits rather than exact numbers.

Data set [1] can be described thus: Acute Toxicity (PO). Format: in vivo.
Data set [2] deals with protein kinases. In words: Protein Kinase Screen. The data set is classed as binding. The text has this: Before undertaking animal experiments, it is important to determine if a new drug candidate has a chance for further clinical development by determining its pharmacological properties of bioavailability and brain penetrance as well as predicted safety.
Data set [3] has as its target CYP 2Cb (Homo sapiens, UniProt P11712). In words: CYP inhibition. Format: in vitro ADME.

CYP 2Cb, sequence (P11712 whole entry): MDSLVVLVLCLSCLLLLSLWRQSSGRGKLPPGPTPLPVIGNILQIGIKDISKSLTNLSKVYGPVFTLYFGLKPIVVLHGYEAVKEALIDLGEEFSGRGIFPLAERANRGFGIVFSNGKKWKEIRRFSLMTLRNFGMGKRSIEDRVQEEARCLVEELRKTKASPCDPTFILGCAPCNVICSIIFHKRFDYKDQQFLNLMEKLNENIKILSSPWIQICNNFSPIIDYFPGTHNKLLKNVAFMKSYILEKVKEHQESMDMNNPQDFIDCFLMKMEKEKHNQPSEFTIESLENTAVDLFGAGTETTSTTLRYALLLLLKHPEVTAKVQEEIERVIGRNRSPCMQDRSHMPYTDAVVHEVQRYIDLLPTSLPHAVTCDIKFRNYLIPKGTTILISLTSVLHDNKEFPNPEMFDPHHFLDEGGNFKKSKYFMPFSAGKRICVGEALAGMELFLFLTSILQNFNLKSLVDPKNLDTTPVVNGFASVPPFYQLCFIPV

For the molecule `Cc1ccc(N(/N=C/c2cccc(OC(F)(F)F)c2)C(=O)C(F)(F)F)c(C)c1` [CAD-31], the acute toxicity entry in data set [1] is reported as “no sign of acute toxicity”. Also, in data set [1] (observation one week post gavage), the “Oral acute toxicity LD50” value is above 2000 mg/kg. Also, the “interaction with known protein kinases” value in data set [2] (10 μM) is recorded as “did not interact”. The same molecule had a pEC50 in data set [2] (all kinases) below 5.00. The EC50 at 10 µM in data set [3] is above 10 µM.

Values taken from publication PMC5513091, “A novel Alzheimer’s disease drug candidate targeting inflammation and fatty acid metabolism” (Alzheimer's Research & Therapy, 2017).
